Measurements: ChEMBL document CHEMBL1201862, “PubChem BioAssay data set” (2004)
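Each compound was tested at five concentrations against cells in 96-well plates for 48 hours. At the GI50, growth is halved.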 Calls of active or inactive are those of the source. No stated cut-off is given here; in the data, active = GI50 up to about 1.1 µM and inactive = higher.

Key:
Experiment in all cases: growth of human tumour cells (NCI), 48 h
RXF 393 = system: RXF 393
SK-MEL-28 = system: SK-MEL-28
NCI-H226 = system: NCI-H226
SW-620 = system: SW-620
OVCAR-8 = system: OVCAR-8
SF-268 = system: SF-268
T47D = system: T47D
NCI/ADR-RES = system: NCI/ADR-RES
Malme-3M = system: Malme-3M
CCRF-CEM = system: CCRF-CEM
M14 = system: M14
HCC 2998 = system: HCC 2998
COLO 205 = system: COLO 205
EKVX = system: EKVX
NCI-H522 = system: NCI-H522
UO-31 = system: UO-31
LOX IMVI = system: LOX IMVI
A498 = system: A498

Row | SMILES | GI50 (RXF 393) | GI50 (SK-MEL-28) | GI50 (NCI-H226) | GI50 (SW-620) | GI50 (OVCAR-8) | GI50 (SF-268) | GI50 (T47D) | GI50 (NCI/ADR-RES) | GI50 (Malme-3M) | GI50 (CCRF-CEM) | GI50 (M14) | GI50 (HCC 2998) | GI50 (COLO 205) | GI50 (EKVX) | GI50 (NCI-H522) | GI50 (UO-31) | GI50 (LOX IMVI) | GI50 (A498)
1 | O=c1cc(-c2ccccc2)[nH]c2cccc(S)c12 | 0.164 µM (active) | 0.564 µM (active) | 0.406 µM (active) | 0.0566 µM (active) | 0.324 µM (active) | 1.25 µM (inactive) | 8.32 µM (inactive) | 0.0796 µM (active) | 0.153 µM (active) | 0.177 µM (active) | 0.857 µM (active) | 0.344 µM (active) | 0.249 µM (active) | > 100 µM (inactive) | 0.0782 µM (active) | – | – | –
2 | Nc1ccc(S(=O)(=O)Nc2nc3ccccc3nc2Nc2ccc(S(N)(=O)=O)cc2)cc1 | 20.8 µM (inactive) | 30.2 µM (inactive) | 56.4 µM (inactive) | 36.9 µM (inactive) | 45.4 µM (inactive) | 17.5 µM (inactive) | 40.7 µM (inactive) | 45.9 µM (inactive) | 22.8 µM (inactive) | 48.8 µM (inactive) | 36.3 µM (inactive) | – | 52.6 µM (inactive) | 75.7 µM (inactive) | 23.3 µM (inactive) | 18.2 µM (inactive) | 17.9 µM (inactive) | –
3 | COc1c(-c2nc3ccc(N4CCN(C)CC4)nc3[nH]2)cc(OC)c2c1nc(CCl)n2C | 16 µM (inactive) | 26.9 µM (inactive) | 19.9 µM (inactive) | 20.9 µM (inactive) | 20.1 µM (inactive) | 22.4 µM (inactive) | 16 µM (inactive) | 56.9 µM (inactive) | 17.5 µM (inactive) | 25.2 µM (inactive) | 16.9 µM (inactive) | 15.7 µM (inactive) | 14.4 µM (inactive) | 19.4 µM (inactive) | 10.5 µM (inactive) | 16.5 µM (inactive) | 10.8 µM (inactive) | –
4 | Clc1ccc(C2=CCN3CC=C(c4ccc(Cl)cc4)C23)cc1 | – | 13.9 µM (inactive) | 24 µM (inactive) | 13.3 µM (inactive) | 14.2 µM (inactive) | 7.96 µM (inactive) | 12.7 µM (inactive) | 12.2 µM (inactive) | 13.6 µM (inactive) | 12.8 µM (inactive) | 7.28 µM (inactive) | 3.06 µM (inactive) | 2.7 µM (inactive) | 15.3 µM (inactive) | 10.2 µM (inactive) | 6.81 µM (inactive) | 8.34 µM (inactive) | –
5 | CC1(C)OC[C@@H](O)[C@H](Br)CO1 | > 100 µM (inactive) | > 100 µM (inactive) | > 100 µM (inactive) | > 100 µM (inactive) | > 100 µM (inactive) | 53.8 µM (inactive) | > 100 µM (inactive) | – | > 100 µM (inactive) | > 100 µM (inactive) | > 100 µM (inactive) | > 100 µM (inactive) | > 100 µM (inactive) | > 100 µM (inactive) | – | > 100 µM (inactive) | > 100 µM (inactive) | > 100 µM (inactive)
6 | O=C(CSCC(=O)N/N=C/c1ccccc1)N/N=C\c1ccccc1 | 65.8 µM (inactive) | > 100 µM (inactive) | > 100 µM (inactive) | > 100 µM (inactive) | > 100 µM (inactive) | > 100 µM (inactive) | 77.6 µM (inactive) | > 100 µM (inactive) | > 100 µM (inactive) | > 100 µM (inactive) | > 100 µM (inactive) | – | > 100 µM (inactive) | > 100 µM (inactive) | > 100 µM (inactive) | > 100 µM (inactive) | > 100 µM (inactive) | –
7 | CN(C)C(=S)N=C(Nc1ccccc1)Nc1ccccc1 | > 100 µM (inactive) | > 100 µM (inactive) | > 100 µM (inactive) | > 100 µM (inactive) | > 100 µM (inactive) | > 100 µM (inactive) | – | – | > 100 µM (inactive) | > 100 µM (inactive) | > 100 µM (inactive) | > 100 µM (inactive) | > 100 µM (inactive) | > 100 µM (inactive) | > 100 µM (inactive) | > 100 µM (inactive) | > 100 µM (inactive) | > 100 µM (inactive)
8 | CC(C)CC(NC(=O)C(CCI)Cc1ccccc1)C(=O)Nc1ccccc1 (configuration not stated) | > 100 µM (inactive) | > 100 µM (inactive) | 58.6 µM (inactive) | 49.8 µM (inactive) | 49.5 µM (inactive) | – | – | 19 µM (inactive) | > 100 µM (inactive) | 30.1 µM (inactive) | 35.6 µM (inactive) | > 100 µM (inactive) | 95.9 µM (inactive) | 42 µM (inactive) | 27.7 µM (inactive) | 22.1 µM (inactive) | 33.3 µM (inactive) | > 100 µM (inactive)
9 | N#CC(O)CCOCc1ccccc1 (configuration not stated) | – | > 100 µM (inactive) | > 100 µM (inactive) | 45.4 µM (inactive) | > 100 µM (inactive) | 5.56 µM (inactive) | > 100 µM (inactive) | > 100 µM (inactive) | > 10 µM (inactive) | 35.4 µM (inactive) | > 100 µM (inactive) | – | > 100 µM (inactive) | > 100 µM (inactive) | 20.5 µM (inactive) | 78.7 µM (inactive) | 46.9 µM (inactive) | > 100 µM (inactive)
10 | O=C1/C(=N/N=C(c2ccccc2)c2ccccc2)c2ccccc2-c2ccccc21 | > 100 µM (inactive) | > 100 µM (inactive) | 38.5 µM (inactive) | > 100 µM (inactive) | > 100 µM (inactive) | > 100 µM (inactive) | 32.8 µM (inactive) | 54 µM (inactive) | 78.5 µM (inactive) | – | > 100 µM (inactive) | – | > 100 µM (inactive) | > 100 µM (inactive) | 54.8 µM (inactive) | 45.5 µM (inactive) | 56.4 µM (inactive) | –
11 | CCCCCCCCCCCCCCCCCc1nc(C#N)c(N)o1 | – | > 100 µM (inactive) | – | > 100 µM (inactive) | 13.8 µM (inactive) | 33.2 µM (inactive) | – | – | – | 2.28 µM (inactive) | 98.6 µM (inactive) | – | – | > 100 µM (inactive) | – | – | 54.3 µM (inactive) | > 100 µM (inactive)
12 | O=C(O)C(Br)C(Br)C(=O)O (configuration not stated) | > 100 µM (inactive) | > 100 µM (inactive) | > 100 µM (inactive) | > 100 µM (inactive) | > 100 µM (inactive) | > 100 µM (inactive) | – | > 100 µM (inactive) | > 100 µM (inactive) | – | > 100 µM (inactive) | > 100 µM (inactive) | > 100 µM (inactive) | > 100 µM (inactive) | > 100 µM (inactive) | > 100 µM (inactive) | > 100 µM (inactive) | > 100 µM (inactive)
13 | CCOC(=O)C(Cc1cn(S(=O)(=O)c2ccc(C)cc2)cn1)P(=O)(OCC)OCC (configuration not stated) | > 100 µM (inactive) | > 100 µM (inactive) | > 100 µM (inactive) | > 100 µM (inactive) | > 100 µM (inactive) | > 100 µM (inactive) | > 100 µM (inactive) | > 100 µM (inactive) | > 100 µM (inactive) | > 100 µM (inactive) | > 100 µM (inactive) | > 100 µM (inactive) | > 100 µM (inactive) | > 100 µM (inactive) | > 100 µM (inactive) | > 100 µM (inactive) | > 100 µM (inactive) | –
14 | CCc1nnc(CC)n1NCCCC(=O)O | > 100 µM (inactive) | > 100 µM (inactive) | – | > 100 µM (inactive) | > 100 µM (inactive) | > 100 µM (inactive) | – | > 100 µM (inactive) | – | > 100 µM (inactive) | > 100 µM (inactive) | > 100 µM (inactive) | > 100 µM (inactive) | > 100 µM (inactive) | > 100 µM (inactive) | > 100 µM (inactive) | > 100 µM (inactive) | –
15 | O=c1c2ccccc2[nH]c(=S)n1-c1ccc(/N=N/c2cccc3cc(O)ccc23)cc1 | > 100 µM (inactive) | > 100 µM (inactive) | > 100 µM (inactive) | > 100 µM (inactive) | > 100 µM (inactive) | > 100 µM (inactive) | > 100 µM (inactive) | > 100 µM (inactive) | > 100 µM (inactive) | > 100 µM (inactive) | > 100 µM (inactive) | > 100 µM (inactive) | 44.5 µM (inactive) | > 100 µM (inactive) | > 100 µM (inactive) | > 100 µM (inactive) | 43.5 µM (inactive) | –
16 | c1ccc(-c2ccc(-c3cc4ccccc4[nH]3)cc2)cc1 | – | > 100 µM (inactive) | > 100 µM (inactive) | > 100 µM (inactive) | > 100 µM (inactive) | > 100 µM (inactive) | > 100 µM (inactive) | > 100 µM (inactive) | > 100 µM (inactive) | 87.7 µM (inactive) | > 100 µM (inactive) | > 100 µM (inactive) | > 100 µM (inactive) | > 100 µM (inactive) | 60.3 µM (inactive) | > 100 µM (inactive) | > 100 µM (inactive) | –
17 | O=C1O/C(=C(/Cl)c2cccc3ccccc23)c2ccccc21 | > 100 µM (inactive) | > 100 µM (inactive) | – | > 100 µM (inactive) | > 100 µM (inactive) | 81.1 µM (inactive) | – | – | > 100 µM (inactive) | > 10 µM (inactive) | > 100 µM (inactive) | > 100 µM (inactive) | > 100 µM (inactive) | > 100 µM (inactive) | 52.1 µM (inactive) | > 100 µM (inactive) | – | > 100 µM (inactive)
18 | CN(NC(=O)/C(=C\c1ccco1)NC(=O)c1ccccc1)c1cn[nH]c(=O)c1Cl | > 100 µM (inactive) | 36.6 µM (inactive) | 45.6 µM (inactive) | 45.9 µM (inactive) | 42.7 µM (inactive) | > 100 µM (inactive) | – | 50.2 µM (inactive) | 39.3 µM (inactive) | 24.6 µM (inactive) | 66.2 µM (inactive) | – | > 100 µM (inactive) | > 100 µM (inactive) | 28.1 µM (inactive) | > 100 µM (inactive) | 23.2 µM (inactive) | –
